Patent publication EP4516280A1, “COSMETIC COMPOSITIONS” (The Boots Company plc, priority 2023, dated 2025)

tested on: mushroom tyrosinase; assay: Tyrosinase inhibition test (L-DOPA oxidation, absorbance at 470 nm); assay type: biochemical; conditions: single compound, Concentration 0.1%
Source text: The tyrosinase inhibition test was used to determine the tyrosinase inhibition ability of the compounds. The test comprises adding the test compound to a solution of L-dihydroxyphenylalanine (L-(DOPA)) and mushroom tyrosinase. L-(DOPA) is converted to […] by the mushroom tyrosinase, causing a brown colour to form. Inhibition of this reaction prevents the brown colour formation. The lighter the colour at the end of the reaction, the stronger is the inhibitory effect of the active. Absorbance data may be collected using a plate reacted set up to have a kinetic read every 1 minute for 30 minutes, where absorbance is read at 470 nm.

Row | Compound | Tyrosinase Inhibition (%)
1 | CCCCCCCCCCCCCCC[C@@H](O)[C@@H](N)CO [K, Sphinganine] | -5.78
2 | C=C(C)[C@@H]1CCC(C)=C[C@H]1c1c(O)cc(CCCCC)cc1O [G, Cannabidiol isolate (CBD)] | 9.134
3 | O=C(O)C(O)c1ccccc1 (centres unmarked) [B, Mandelic acid] | 80.279
4 | Feruloyl oligopeptide-33 | 41.765
5 | CC1(C)[C@@H](O[C@H]2O[C@H](C(=O)[O-])[C@@H](O)[C@H](O)[C@H]2O[C@@H]2O[C@H](C(=O)[O-])[C@@H](O)[C@H](O)[C@H]2O)CC[C@]2(C)[C@H]3C(=O)C=C4[C@@H]5C[C@@](C)(C(=O)O)CC[C@]5(C)CC[C@@]4(C)[C@]3(C)CC[C@@H]12.[K+].[K+] [H, Dipotassium glycyrrhizate (DPG)] | 54.567
